# PubChem BioAssay (NCI)
#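 Protocol summary: plate cells (96-well), add compound at 5 concentrations, incubate 48 h, interpolate endpoints linearly. TGI: concentration producing complete growth inhibition.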
# Legend:
# Test in all cases: growth of human tumour cells (NCI), 48 h
# [1] = tested on: 786-0 renal
# [2] = tested on: A498 renal
# [3] = tested on: A549 NSCLC
# [4] = tested on: ACHN renal
# [5] = tested on: BT-549 breast
# [6] = tested on: CAKI-1 renal
# [7] = tested on: COLO 205 colon
# [8] = tested on: DU-145 prostate
# [9] = tested on: EKVX NSCLC
# [10] = tested on: HCC-2998 colon
# [11] = tested on: HCT-116 colon
# [12] = tested on: HCT-15 colon
# [13] = tested on: HL-60(TB) leukemia
# [14] = tested on: HOP-62 NSCLC
# [15] = tested on: HOP-92 NSCLC
# [16] = tested on: HS 578T breast
# [17] = tested on: HT29 colon
# [18] = tested on: IGROV1 ovarian
# [19] = tested on: K-562 leukemia
# [20] = tested on: KM12 colon
# [21] = tested on: LOX IMVI melanoma
# [22] = tested on: M14 melanoma
# [23] = tested on: MALME-3M melanoma
# [24] = tested on: MCF7 breast
# [25] = tested on: MDA-MB-231 breast
# [26] = tested on: MDA-MB-435
# [27] = tested on: MDA-N
# [28] = tested on: MOLT-4 leukemia
# [29] = tested on: NCI-H226 lung
# [30] = tested on: NCI-H23 lung
# [31] = tested on: NCI-H460 lung
# [32] = tested on: NCI-H522 lung
# [33] = tested on: NCI/ADR-RES ovarian
# [34] = tested on: OVCAR-3 ovarian
# [35] = tested on: OVCAR-4 ovarian
# [36] = tested on: OVCAR-5 ovarian
# [37] = tested on: OVCAR-8 ovarian
# [38] = tested on: PC-3 prostate
# [39] = tested on: RPMI-8226 leukemia
# [40] = tested on: RXF 393 renal
# [41] = tested on: SF-268 CNS
# [42] = tested on: SF-295 CNS
# [43] = tested on: SF-539 CNS
# [44] = tested on: SK-MEL-2 melanoma
# [45] = tested on: SK-MEL-28 melanoma
# [46] = tested on: SK-MEL-5 melanoma
# [47] = tested on: SK-OV-3 ovarian
# [48] = tested on: SN12C renal
# [49] = tested on: SNB-19 CNS
# [50] = tested on: SNB-75 CNS
# [51] = tested on: SR leukemia
# [52] = tested on: SW-620 colon
# [53] = tested on: T-47D breast
# [54] = tested on: TK-10 renal
# [55] = tested on: U251 CNS
# [56] = tested on: UACC-257 melanoma
# [57] = tested on: UACC-62 melanoma
# [58] = tested on: UO-31 renal
compound,measurement,setting,value
N/C(=N\Nc1ccc(C(=O)O)cc1)c1cnccn1,TGI,[1],> 100 µM
same,TGI,[2],> 100 µM
same,TGI,[3],> 100 µM
same,TGI,[4],> 100 µM
same,TGI,[5],> 100 µM
same,TGI,[6],> 100 µM
same,TGI,[7],> 100 µM
same,TGI,[8],> 100 µM
same,TGI,[9],> 100 µM
same,TGI,[10],> 100 µM
same,TGI,[11],> 100 µM
same,TGI,[12],> 100 µM
same,TGI,[13],0.166 µM
same,TGI,[14],> 100 µM
same,TGI,[15],> 100 µM
same,TGI,[16],> 100 µM
same,TGI,[17],> 100 µM
same,TGI,[18],> 100 µM
same,TGI,[19],> 100 µM
same,TGI,[20],> 100 µM
same,TGI,[21],> 100 µM
same,TGI,[22],> 100 µM
same,TGI,[23],> 100 µM
same,TGI,[24],> 100 µM
same,TGI,[25],> 100 µM
same,TGI,[26],> 100 µM
same,TGI,[27],> 100 µM
same,TGI,[28],> 100 µM
same,TGI,[29],> 100 µM
same,TGI,[30],> 100 µM
same,TGI,[31],> 100 µM
same,TGI,[32],> 100 µM
same,TGI,[33],> 100 µM
same,TGI,[34],> 100 µM
same,TGI,[35],> 100 µM
same,TGI,[36],> 100 µM
same,TGI,[37],> 100 µM
same,TGI,[38],> 100 µM
same,TGI,[39],> 100 µM
same,TGI,[40],> 100 µM
same,TGI,[41],> 100 µM
same,TGI,[42],> 100 µM
same,TGI,[43],> 100 µM
same,TGI,[44],> 100 µM
same,TGI,[45],> 100 µM
same,TGI,[46],> 100 µM
same,TGI,[47],> 100 µM
same,TGI,[48],> 100 µM
same,TGI,[49],> 100 µM
same,TGI,[50],> 100 µM
same,TGI,[51],> 100 µM
same,TGI,[52],> 100 µM
same,TGI,[53],> 100 µM
same,TGI,[54],> 100 µM
same,TGI,[55],> 100 µM
same,TGI,[56],> 100 µM
same,TGI,[57],> 100 µM
same,TGI,[58],> 100 µM
CC(=O)Oc1ccc2c3c1[C@H]1O[C@H]1c1cccc(c1-3)[C@@H]1O[C@H]21,TGI,[1],6.01 µM
same,TGI,[2],33.8 µM
same,TGI,[3],22.1 µM
same,TGI,[4],37.4 µM
same,TGI,[5],23.6 µM
same,TGI,[6],7.96 µM
same,TGI,[7],27.4 µM
same,TGI,[8],20.8 µM
same,TGI,[9],36.9 µM
same,TGI,[10],25.3 µM
same,TGI,[11],34.4 µM
same,TGI,[12],13.1 µM
same,TGI,[13],6.61 µM
same,TGI,[14],17.5 µM
same,TGI,[15],24.9 µM
same,TGI,[16],14.4 µM
same,TGI,[17],47.4 µM
same,TGI,[19],> 100 µM
same,TGI,[20],27.5 µM
same,TGI,[21],4.13 µM
same,TGI,[22],10.2 µM
same,TGI,[23],5.76 µM
same,TGI,[24],> 100 µM
same,TGI,[25],31.5 µM
same,TGI,[26],4.26 µM
same,TGI,[27],20.9 µM
same,TGI,[28],> 100 µM
same,TGI,[29],56.8 µM
same,TGI,[30],12.7 µM
same,TGI,[32],4.51 µM
same,TGI,[33],43.5 µM
same,TGI,[34],11.8 µM
same,TGI,[35],18.6 µM
same,TGI,[36],31.8 µM
same,TGI,[37],9.88 µM
same,TGI,[38],32.9 µM
same,TGI,[39],> 100 µM
same,TGI,[40],6.84 µM
same,TGI,[41],14.4 µM
same,TGI,[42],25 µM
same,TGI,[44],39.6 µM
same,TGI,[45],27.7 µM
same,TGI,[46],12.1 µM
same,TGI,[47],27.9 µM
same,TGI,[48],7.55 µM
same,TGI,[49],30.5 µM
same,TGI,[50],15.7 µM
same,TGI,[51],> 100 µM
same,TGI,[52],4.59 µM
same,TGI,[53],6.79 µM
same,TGI,[54],31.8 µM
same,TGI,[55],18.9 µM
same,TGI,[56],32.9 µM
same,TGI,[57],20.8 µM
same,TGI,[58],8.94 µM
